Publication PMC7467771, “Lipophilic Arginine Esters: The Gateway to Preservatives without Side Effects” (Molecular Pharmaceutics, 2020)

How the values were obtained:
[1] = test system: Bacillus subtilis ATCC 6633; experiment: disk diffusion method; format: cell-based; details: Bacillus subtilis, ATCC6633, read-out: zones of inhibition
Procedure: (§1) Following bacterial strains were used for antimicrobial susceptibility testing: Escherichia coli ATCC 25922, Staphylococcus aureus ATCC 29213, Bacillus subtilis ATCC 6633, and Enterococcus faecalis ATCC 19433, which were obtained from the American Type Culture Collection (ATCC, Virginia, USA).
(§2) The disk diffusion method was used for the initial assessment of the antimicrobial activity of Arg-esters. Mueller Hinton agar (MHA, Biomerieux) medium was prepared according to the manufacturer protocol and poured into Petri dishes. All testing microorganisms were dissolved in saline and set to a 0.5 McFarland standard turbidity. This corresponds to a bacterial concentration of 1.5 × 10^8 colony-forming units per milliliter (CFU mL^–1). The bacterial suspension was then swabbed over solidified MHA Petri dishes ensuring homogeneous distribution. The test solutions of Arg-OL, Arg-DT, BAC, and cetrimide were prepared in water with 10% (v/v) DMSO at a concentration of 10 mg mL^–1. Water with 10% (v/v) DMSO was used as a negative control. The diffusion disks of about 6 mm in diameter were prepared from Whatman filter paper. After immersing disks in the above-prepared test solutions, they were placed on MHA plates already swabbed with different bacteria. After overnight incubation of Petri dishes at 37 °C, clear zones of bacterial growth inhibition around disks were measured.

[2] = test system: Staphylococcus aureus ATCC 29213; experiment: disk diffusion method; format: cell-based; details: Staphylococcus aureus, ATCC29213, read-out: zones of inhibition
Procedure: as §1, §2

[3] = test system: Escherichia coli ATCC 25922; experiment: disk diffusion method; format: cell-based; details: Escherichia coli, ATCC25922, read-out: zones of inhibition
Procedure: as §1, §2

[4] = test system: Enterococcus faecalis ATCC 19433; experiment: disk diffusion method; format: cell-based; details: Enterococcus faecalis, ATCC19433, read-out: zones of inhibition
Procedure: as §1, §2

[5] = test system: Bacillus subtilis ATCC 6633; experiment: MIC testing by the microdilution method; format: cell-based; details: Bacillus subtilis, ATCC6633, read-out: minimum inhibitory concentration
Procedure: as §1
(§3) The MIC is the lowest concentration of a substance that leads to a clearly visible growth inhibition after a defined incubation period. To evaluate the MIC of Arg-DT, Arg-OL, BAC, and cetrimide, a microdilution test was performed according to the guidelines of the Clinical and Laboratory Standards Institute.[19] First of all, similarly, as for the disk diffusion test, microorganisms were dissolved in saline and set to a 0.5 McFarland standard turbidity. This corresponds to a bacterial concentration of 1.5 × 10^8 colony-forming units per milliliter (CFU mL^–1); 50 μL of the bacterial suspension was added to 10 mL of Mueller Hinton Bouillon (MHB, Becton Dickinson, New Jersey, USA). The stock solutions were prepared as follows: the test compounds Arg-OL, Arg-DT, BAC, and cetrimide were dissolved in water with 10% (v/v) DMSO at a concentration of 10 mg mL^–1. The obtained solutions were used to prepare serial dilutions. The tested concentration for each substance ranged from 5000 to 5 μg mL^–1. Each test sample was added to a flat-bottomed tissue plate well in the volume of 75 μL. The first well of the tissue plate containing 75 μL of water with 10% (v/v) DMSO instead of any test sample was used as a positive control. Finally, 75 μL of the bacterial suspension was added to each well, and the plates were incubated at 37 °C overnight.
(§4) Before measuring the optical density (OD), plates were shaken for 15 min at 250 rpm. The OD was measured using the Bio-Rad 680 microplate reader (Hercules, California, USA) at a wavelength of 490 nm. Inhibition of bacterial growth was defined as a reduction of growth for at least 5 log units. Experiments were performed three times under analogous conditions for each bacterial strain and each tested sample.

[6] = test system: Staphylococcus aureus ATCC 29213; experiment: MIC testing by the microdilution method; format: cell-based; details: Staphylococcus aureus, ATCC29213, read-out: minimum inhibitory concentration
Procedure: as §1, §3, §4

[7] = test system: Escherichia coli ATCC 25922; experiment: MIC testing by the microdilution method; format: cell-based; details: Escherichia coli, ATCC25922, read-out: minimum inhibitory concentration
Procedure: as §1, §3, §4

[8] = test system: Enterococcus faecalis ATCC 19433; experiment: MIC testing by the microdilution method; format: cell-based; details: Enterococcus faecalis, ATCC19433, read-out: minimum inhibitory concentration
Procedure: as §1, §3, §4

[9] = test system: lipase from porcine pancreas; experiment: degradation of arginine esters by lipase (pH-stat titration); format: in vitro ADME; details: within 3 h, 1 mM ester, pH 6.8, 37 °C
Procedure: Lipase-catalyzed hydrolytic degradation of Arg-OL and Arg-DT esters was carried out using a previously described experimental setup.[16] Digestion medium consisted of 2 mM Tris buffer with 5 mM CaCl2 and 150 mM NaCl. The medium pH was adjusted to 6.8. Lipase solution was freshly prepared before the experiment as follows: 0.5 g of lipase was mixed for 10 min in 10 mL of digestion medium, followed by centrifugation at 12 000 rpm and 4 °C for 15 min. The supernatant was collected for the degradation test and ice-stored until use. For the degradation test, solutions of Arg-OL and Arg-DT were prepared in the concentration of 1 mM in digestion buffer, and the pH was adjusted to 6.8 using 0.5 M NaOH. Thereafter, 2 mL of lipase solution was added to 18 mL of the Arg-surfactant solution to initiate ester degradation under continuous stirring at 37 °C. The ester hydrolysis was reflected by monitoring the drop in pH due to the release of arginine and titrated to keep the pH at 6.8 with the addition of 0.5 M NaOH. The experiment was continued for 3 h. Back-titration was also performed at the end of the experiment by raising the pH to 9, and additional consumption of the NaOH volume reflected the nonionized form of an amino acid. […]

Row | SMILES | zone of inhibition at 10 µg/mL [1] [mm] | zone of inhibition at 10 µg/mL [2] [mm] | zone of inhibition at 10 µg/mL [3] [mm] | zone of inhibition at 10 µg/mL [4] [mm] | MIC [5] [µg/mL] | MIC [6] [µg/mL] | MIC [7] [µg/mL] | MIC [8] [µg/mL] | percentage of arginine ester cleaved by lipase [9] [%]
1 | CCCCCCCCCCCCC(CCCCCCCCCC)COC(=O)[C@@H](N)CCCNC(=N)N.O=C(O)C(F)(F)F (stereo partly drawn) [Arg-DT, 2-Decyltetradecyl Argininate Trifluoroacetate] | 18 | 16 | 9 | 16 | 5 | 10 | 39 | 10 | 85
2 | CCCCCCCCC=CCCCCCCCCOC(=O)[C@@H](N)CCCNC(=N)N.O=C(O)C(F)(F)F [Arg-OL, Octadec-9-en-1-yl Argininate Trifluoroacetate] | 16 | 19 | 9 | 18 | 5 | 10 | 20 | 5 | 93
